Results as given in ChEMBL document CHEMBL1137470, “Pyrrolidinones as potent functional antagonists of the human melanocortin-4 receptor” (Bioorg Med Chem Lett, 2007).

Columns and labels:
[1] = Ratio of drug level in brain to plasma in mouse at 5 mg/kg, iv after 4 hrs; format: ADME, organism-based; design: dose 5 mg/kg, route intravenous; details: read-out: BPR
[2] = Oral bioavailability in mouse at 10 mg/kg, po; format: ADME, organism-based; details: in vivo
[3] = AUC in mouse at 10 mg/kg, po; format: ADME, organism-based; design: dose 10 mg/kg, route oral; details: plasma
[4] = Drug level in rat brain at 5 mg/kg, iv after 1 hr; format: ADME, organism-based; design: dose 5 mg/kg, route intravenous; details: read-out: Drug uptake
[5] = Half life in mouse at 5 mg/kg, iv; format: ADME, organism-based; design: dose 5 mg/kg, route intravenous; details: in vivo
[6] = AUC in mouse at 5 mg/kg, iv; format: ADME, organism-based; design: dose 5 mg/kg, route intravenous; details: plasma
[7] = Ratio of drug level in brain to plasma in mouse at 5 mg/kg, iv after 1 hr; format: ADME, organism-based; design: dose 5 mg/kg, route intravenous; details: read-out: BPR
[8] = Lipophilicity, log D by shake-flask method; format: physicochemical; details: octanol/water
[9] = Tmax in mouse at 10 mg/kg, po; format: ADME, organism-based; design: dose 10 mg/kg, route oral; details: in vivo
[10] = Apparent permeability across Caco-2 cells; format: ADME, cell-based; details: human
[11] = Drug level in mouse brain at 5 mg/kg, iv after 4 hrs; format: ADME, organism-based; design: dose 5 mg/kg, route intravenous; details: read-out: Drug uptake
[12] = Cmax in mouse at 10 mg/kg, po after 2 hrs; format: ADME, organism-based; design: dose 10 mg/kg, route oral; details: in vivo
[13] = Volume of distribution in mouse at 5 mg/kg, iv; format: ADME, organism-based; design: dose 5 mg/kg, route intravenous; details: in vivo
[14] = Drug level in mouse brain at 5 mg/kg, iv after 1 hr; format: ADME, organism-based; design: dose 5 mg/kg, route intravenous; details: read-out: Drug uptake
[15] = Plasma clearance in mouse at 5 mg/kg, iv; format: ADME, organism-based; design: dose 5 mg/kg, route intravenous
[16] = Permeability from basolateral to apical side of the Caco-2 cell membrane; format: ADME, cell-based; details: human, read-out: permeability
[17] = Ratio of drug level in brain to plasma in rat at 5 mg/kg, iv after 1 hr; format: ADME, organism-based; design: dose 5 mg/kg, route intravenous; details: read-out: BPR

Row | Kp at 4 h [1] | bioavailability [2] [%] | AUC [3] [ng·h/mL] | concentration at 1 h [4] [ng/g] | half-life [5] [h] | AUC [6] [ng·h/mL] | Kp at 1 h [7] | logD [8] | Tmax [9] [h] | Papp [10] [×10⁻⁶ cm/s] | concentration at 4 h [11] [ng/g] | Cmax [12] [ng/mL] | Vd [13] [L/kg] | concentration at 1 h [14] [ng/g] | clearance [15] [mL/min/kg] | Papp B→A [16] [×10⁻⁶ cm/s] | Kp at 1 h [17] | Compound
1 | 0.23 | – | – | – | – | – | – | – | – | – | – | – | – | – | – | – | – | CC(C)C[C@H](NCCN)c1cc(F)ccc1N1CCN(C(=O)[C@@H](Cc2ccc(Cl)cc2Cl)N2CCCC2=O)CC1
2 | – | 19.5 | 1950 | 81 | 10 | 9980 | 0.14 | 1.8 | 2 | 2 | 53 | 552 | 13 | 63 | 15 | 6.7 | 0.47 | CC(C)C[C@H](NCCN)c1cccc(F)c1N1CCN(C(=O)[C@@H](Cc2ccc(Cl)cc2Cl)N2CCCC2=O)CC1
